In brackets after ≈: the same amount, converted by molar mass. Several values for one entry are separate records, joined by “and”; a condition that tells them apart may be missing. Equal values may be shown once.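 Where inhibition never reached the appropriate level, the endpoint shown equals the highest concentration tested. Otherwise, values were interpolated linearly from a five-concentration, 48-hour dose response in 96-well plates. At the GI50, growth is halved. TGI: total growth inhibition.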
Tests used:
Test in all cases: NCI-60 cell line screen, 48 h
ACHN renal = test system: ACHN renal
EKVX NSCLC = test system: EKVX NSCLC
NCI-H460 lung = test system: NCI-H460 lung
OVCAR-3 ovarian = test system: OVCAR-3 ovarian
SF-295 CNS = test system: SF-295 CNS
SF-539 CNS = test system: SF-539 CNS
SNB-19 CNS = test system: SNB-19 CNS
SR leukemia = test system: SR leukemia
BT-549 breast = test system: BT-549 breast
IGROV1 ovarian = test system: IGROV1 ovarian

| SMILES | TGI (ACHN renal) | TGI (EKVX NSCLC) | TGI (NCI-H460 lung) [µM] | TGI (OVCAR-3 ovarian) | TGI (SF-295 CNS) | TGI (SF-539 CNS) | TGI (SNB-19 CNS) [µM] | TGI (SR leukemia) [µM] | TGI (BT-549 breast) [µM] | TGI (IGROV1 ovarian) | GI50 (ACHN renal) [µM] | GI50 (IGROV1 ovarian) | GI50 (NCI-H460 lung) [µM] | GI50 (SF-295 CNS) | GI50 (SF-539 CNS) | GI50 (SNB-19 CNS) [µM] | GI50 (BT-549 breast) [µM] | GI50 (EKVX NSCLC) | GI50 (OVCAR-3 ovarian) | GI50 (SR leukemia) [ng/mL] |
| --- | --- | --- | --- | --- | --- | --- | --- | --- | --- | --- | --- | --- | --- | --- | --- | --- | --- | --- | --- | --- |
| N#C/C(=C/c1ccc([N+](=O)[O-])o1)c1ccccc1 | > 100 µM | > 100 µM | > 100 | > 100 µM | > 100 µM | > 100 µM | > 100 | > 100 | – | – | – | – | – | – | – | – | – | – | – | – |
| CO[C@H]1C[C@H](O[C@H]2CC[C@@]3(C)[C@H](CC[C@@H]4[C@@H]3CC[C@]3(C)[C@@H](C5=CC(=O)OC5)CC[C@]43O)C2)O[C@H](C)[C@H]1O | 0.0101 µM | 0.0148 µM | 0.0103 | < 0.0194 µM | 0.0555 µM | 0.0138 µM | 0.143 | – | 0.0175 | 0.113 µM | – | – | – | – | – | – | – | – | – | – |
| C=C1C(C)C2C(Cc3ccccc3)NC(=O)C23C(OC(C)=O)C=CC(C)(O)C(=O)C(C)C/C=C/C3C1O (stereo not given) | > 196 µM | > 95.5 µM and 30 µM | > 295 | > 500 µM | 30.5 µM and 62.3 µM | 2.77 µM and 1.22 µM | – | > 289 | – | – | 1.28 | 0.79 µM | 0.291 | 0.418 µM | 0.208 µM | 0.474 | – | – | – | – |
| Cc1nc2ccccc2c(=O)n1/N=C(\N=Nc1cc(Cl)ccc1Cl)c1ccc(N(C)C)cc1 | > 100 µM | > 100 µM | > 100 | – | – | > 100 µM | > 100 | – | – | > 100 µM | – | – | – | – | – | – | – | – | – | – |
| COc1cc2c(c3oc4c(O)cccc4c(=O)c13)CC(C(C)(O)CCl)O2 (stereo not given) | 1.87 µM | 21.9 µM | 13.2 | 7.43 µM | 24.1 µM | 2.2 µM | 20.9 | – | 12.5 | 8.28 µM | – | – | – | – | – | – | – | – | – | – |
| C#Cc1c(C)c(/C=C/C(C)=C\C(=O)OC)n(C)c1C | > 100 µM | > 100 µM | > 100 | > 100 µM | > 100 µM | > 100 µM | > 100 | – | – | > 100 µM | – | – | – | – | – | – | – | – | – | – |
| Nc1ncc(CN2CCCC2)c(-c2ccccc2O)n1 | > 750 µM | – | > 750 | > 750 µM | > 750 µM | > 750 µM | > 750 | > 750 | – | > 750 µM | – | – | – | – | – | – | – | – | – | – |
| O=C(CC1(O)C(=O)Nc2ccc(Cl)cc21)c1ccc(C(=O)NCC2CCC3(CC2)OOC2(CCCCC2)OO3)cc1 (stereo not given) | – | 4.3 µM | – | – | 9.31 µM | 3.16 µM | 23.6 | – | 16.1 | 2.89 µM | – | 0.482 µM | – | 2.15 µM | 1.63 µM | 4.19 | 3.01 | 1.59 µM | – | – |
| O=C(NCCN1CCOCC1)c1cc2c(Oc3ccc(NC(=O)C4(C(=O)Nc5ccc(F)cc5)CC4)cc3)ccnc2[nH]1 | > 100 µM | > 100 µM | > 100 | > 85.7 µM | 15.5 µM | 16.5 µM | > 100 | – | > 54.8 | > 100 µM | 7.84 | 2.32 µM | 4.36 | 0.47 µM | 1.39 µM | 14.2 | 7.85 | 10.3 µM | 19 µM | – |
| CC(C)(c1ccc(C=O)o1)c1ccc(C(C)(C)c2ccc(C=O)o2)o1 | > 100 µM | > 100 µM | > 100 | – | > 100 µM | > 100 µM | > 100 | > 100 | – | > 100 µM | – | – | – | – | – | – | – | – | – | – |
| O=C1CCNC/C1=C\c1ccccc1 | 78 µM | > 100 µM | > 100 | 54.8 µM | 67.8 µM | 42.3 µM | 46.4 | > 100 | – | > 100 µM | – | – | – | – | – | – | – | – | – | – |
| C=C(CN1CCN(c2cc(C(F)(F)F)cc(C(F)(F)F)c2)CC1)c1ccc(C(=O)Nc2ccccc2N)cc1 | > 100 µM | 58.6 µM | > 100 | 21.2 µM | 62 µM | > 100 µM | > 100 | – | 24.6 | 27.3 µM | 5.81 | 4.2 µM | 4.09 | 7.29 µM | 18 µM | 14 | 5.04 | 11.7 µM | 3.18 µM | – |
| CCNC(=O)O/N=C1\CCC2[C@@H]3CC=C4C[C@@H](OC(=O)NCC)CC[C@]4(C)C3CC[C@]12C (stereo not given in full) | 4.96 µM | 4.84 µM | 10 | 12.6 µM | 11.4 µM | > 100 µM | 14.1 | – | – | > 100 µM | – | – | – | – | – | – | – | – | – | – |
| N#Cc1c(N)oc2cc3c(C#N)c(N)oc3cc12 | > 100 µM | > 100 µM | > 100 | > 100 µM | > 100 µM | > 100 µM | > 100 | – | – | > 100 µM | – | – | – | – | – | – | – | – | – | – |
| CCOC(=O)C(Oc1ccc(OC)c2c1C(=O)CCC2)c1ccccc1 (stereo not given) | > 100 µM | > 100 µM | > 100 | > 100 µM | > 100 µM | > 100 µM | > 100 | – | – | > 100 µM | – | – | – | – | – | – | – | – | – | – |
| CCn1c(=O)nc2n(-c3ccc(SC)cc3)c3ccccc3nc-2c1=O | > 100 µM | > 100 µM | > 100 | > 100 µM | > 100 µM | > 100 µM | > 100 | – | – | > 100 µM | – | – | – | – | – | – | – | – | – | – |
| COc1cc2c(cc1O)CCN[C@@]21CS[C@H]2c3c(OC(C)=O)c(C)c4c(c3C(COC1=O)N1C2C2NC(Cc3cc(C)c(OC)c(O)c32)[C@@H]1O)OCO4 (stereo not given in full) | 12.9 µM and 2e-06 µg/mL and 0.0045 µg/mL | < 10 nM and 1.3e-05 µg/mL | < 0.01 | 0.00531 ng/mL | 1.09 µM and 5.17 µg/mL | < 10 nM and 0.0045 µg/mL | 11.4 | – | – | 10.5 µM and 0.000362 µg/mL and 0.0045 µg/mL | – | 0.000551 ng/mL and 4.5 ng/mL | – | 4.5 ng/mL | 4.5 ng/mL | – | – | 0.000588 ng/mL | 0.000341 ng/mL | 4.5 (≈ 6.02 nM) |
| CCOC(=O)C1=C(C)N(NC(=O)Nc2ccccc2)C2(N)N(NC(=O)Nc3ccccc3)C(C)=C(C(=O)OCC)C12C#N (stereo not given) | 51.4 µM | – | 33.1 | 32.2 µM | – | – | – | – | – | 36.6 µM | – | – | – | – | – | – | – | – | – | – |
| CCOC(=O)C(=O)CC(=O)C(Br)C(Br)c1ccc(Cl)cc1 (stereo not given) | > 100 µM | > 100 µM | > 100 | 87.8 µM | > 100 µM | – | 64.6 | – | – | > 100 µM | – | – | – | – | – | – | – | – | – | – |
| CC1=C(\C=C/C(C)=C/C=C/C(C)=C/C=C/C=C(C)\C=C\C=C(C)/C=C/C2=C(C)CCCC2(C)C)C(C)(C)CCC1 | > 100 µM | – | > 100 | > 100 µM | > 100 µM | – | > 100 | – | > 100 | > 100 µM | – | – | – | – | – | – | – | – | – | – |

From PubChem BioAssay (NCI)
